Data: ChEMBL document CHEMBL5696439 (Cancer Res, 2010)
pIC50: −log10 of the molar value. Active and inactive are the calls of the source. No cut-off for these calls is given here.

Legend:
MDA-MB-361 [1] = experiment: Inhibition of protein synthesis in human MDA-MB-361 cells at 0.3 micromol/L incubated for 3 hrs by [3H] methionine incorporation based scintillation counter analysis relative to control; assay type: functional; details: MDA-MB-361, 3 h, dose 0.3 µmol/L
[2] = biological target: Tyrosine-protein kinase Lyn (Homo sapiens) (UniProt P07948); experiment: Inhibition of recombinant human full length His-tagged LYN B expressed in baculovirus expression system at 2 uM using Tyr 02 as substrate measured after 1 hr by Z'-LYTE assay relative to control
[3] = biological target: Casein kinase I isoform gamma-2 (Homo sapiens) (UniProt P78368); experiment: Inhibition of recombinant human full-length His-tagged CSNK1G2 expressed in baculovirus expression system at 2 uM using Ser/Thr 05 as substrate measured after 1 hr by Z'-LYTE assay relative to control
Casein kinase I isoform gamma-2 (Homo sapiens), sequence (P78368 whole entry, looked up, canonical isoform): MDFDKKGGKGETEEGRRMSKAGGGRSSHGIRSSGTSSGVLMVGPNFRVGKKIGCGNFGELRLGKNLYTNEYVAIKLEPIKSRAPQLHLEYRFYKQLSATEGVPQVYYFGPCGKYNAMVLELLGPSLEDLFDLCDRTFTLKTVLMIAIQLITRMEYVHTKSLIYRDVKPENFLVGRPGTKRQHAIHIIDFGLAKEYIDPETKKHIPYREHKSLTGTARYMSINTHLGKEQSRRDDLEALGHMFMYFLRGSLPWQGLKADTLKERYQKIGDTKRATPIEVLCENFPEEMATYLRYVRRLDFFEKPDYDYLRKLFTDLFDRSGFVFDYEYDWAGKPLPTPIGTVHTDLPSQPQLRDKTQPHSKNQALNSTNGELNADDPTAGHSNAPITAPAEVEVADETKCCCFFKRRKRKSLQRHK

[4] = biological target: Death-associated protein kinase 3 (Homo sapiens) (UniProt O43293); experiment: Inhibition of recombinant human full-length GST-tagged DAPK3 expressed in insect cells at 2 uM using Ser/Thr 13 as substrate measured after 1 hr by Z'-LYTE assay relative to control; details: Insect cell
[5] = test system: Epidermal growth factor receptor (Homo sapiens), P00533 [L861Q]; experiment: Inhibition of recombinant human GST-tagged EGFR L861Q mutant (668-1210 residues) expressed in insect cells at 2 uM using Tyr 04 as substrate measured after 1 hr by Z'-LYTE assay relative to control; details: Insect cell
Epidermal growth factor receptor (Homo sapiens), P00533 [L861Q], sequence (P00533 whole entry L861Q, the tested form may be a part): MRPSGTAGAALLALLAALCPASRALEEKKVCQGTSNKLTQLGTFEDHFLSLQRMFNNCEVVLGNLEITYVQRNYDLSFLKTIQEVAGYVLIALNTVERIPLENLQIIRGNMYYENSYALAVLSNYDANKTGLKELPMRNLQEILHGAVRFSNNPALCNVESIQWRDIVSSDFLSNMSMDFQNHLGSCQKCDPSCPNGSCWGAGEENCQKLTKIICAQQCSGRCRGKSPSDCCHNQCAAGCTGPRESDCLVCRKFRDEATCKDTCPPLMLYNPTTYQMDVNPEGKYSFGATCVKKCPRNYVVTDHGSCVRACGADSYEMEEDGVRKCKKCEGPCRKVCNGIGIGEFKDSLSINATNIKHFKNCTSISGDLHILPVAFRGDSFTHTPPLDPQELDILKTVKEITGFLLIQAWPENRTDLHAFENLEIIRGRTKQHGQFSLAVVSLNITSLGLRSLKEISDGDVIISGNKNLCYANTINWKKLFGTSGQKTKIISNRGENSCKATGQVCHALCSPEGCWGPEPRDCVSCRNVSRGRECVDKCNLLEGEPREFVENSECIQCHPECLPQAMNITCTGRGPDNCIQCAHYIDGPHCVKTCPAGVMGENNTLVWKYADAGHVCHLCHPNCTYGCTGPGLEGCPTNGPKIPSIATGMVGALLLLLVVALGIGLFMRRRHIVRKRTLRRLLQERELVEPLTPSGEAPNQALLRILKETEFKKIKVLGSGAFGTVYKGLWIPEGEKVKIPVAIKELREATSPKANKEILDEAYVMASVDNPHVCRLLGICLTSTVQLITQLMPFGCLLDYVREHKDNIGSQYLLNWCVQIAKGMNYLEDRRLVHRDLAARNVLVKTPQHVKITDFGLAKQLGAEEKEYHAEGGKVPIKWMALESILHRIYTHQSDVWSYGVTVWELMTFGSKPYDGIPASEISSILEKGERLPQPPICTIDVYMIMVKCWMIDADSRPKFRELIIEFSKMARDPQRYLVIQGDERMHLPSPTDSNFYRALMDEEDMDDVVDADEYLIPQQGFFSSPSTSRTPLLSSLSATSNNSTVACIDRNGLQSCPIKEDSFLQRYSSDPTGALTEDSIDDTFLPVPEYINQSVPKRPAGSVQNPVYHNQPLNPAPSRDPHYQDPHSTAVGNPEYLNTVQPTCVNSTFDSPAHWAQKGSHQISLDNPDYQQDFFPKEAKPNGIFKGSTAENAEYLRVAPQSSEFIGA

MDA-MB-361 [6] = experiment: Antitumor activity against human MDA-MB-361 cells xenografted in female nude mouse model assessed as P-AKT at T308 level at 6 to 12 mg/kg, po qd administered as 5 days on/2 days off regimen for 4 cycles by immunoblot analysis; assay type: functional, organism-based; details: dose 6-12 mg/kg, time 28.0 day
[7] = biological target: Serine/threonine-protein kinase Sgk2 (Homo sapiens) (UniProt Q9HBY8); experiment: Inhibition of recombinant human GST-tagged SGK2 (54-427 residues) expressed in insect cells at 2 uM using Ser/Thr 06 as substrate measured after 1 hr by Z'-LYTE assay relative to control; details: Insect cell
[8] = biological target: Ribosomal protein S6 kinase alpha-6 (Homo sapiens) (UniProt Q9UK32); experiment: Inhibition of recombinant human full length GST-tagged RPS6KA6 expressed in insect cells at 2 uM using Ser/Thr 20 as substrate measured after 1 hr by Z'-LYTE assay relative to control; details: Insect cell
Ribosomal protein S6 kinase alpha-6 (Homo sapiens), sequence (Q9UK32 whole entry): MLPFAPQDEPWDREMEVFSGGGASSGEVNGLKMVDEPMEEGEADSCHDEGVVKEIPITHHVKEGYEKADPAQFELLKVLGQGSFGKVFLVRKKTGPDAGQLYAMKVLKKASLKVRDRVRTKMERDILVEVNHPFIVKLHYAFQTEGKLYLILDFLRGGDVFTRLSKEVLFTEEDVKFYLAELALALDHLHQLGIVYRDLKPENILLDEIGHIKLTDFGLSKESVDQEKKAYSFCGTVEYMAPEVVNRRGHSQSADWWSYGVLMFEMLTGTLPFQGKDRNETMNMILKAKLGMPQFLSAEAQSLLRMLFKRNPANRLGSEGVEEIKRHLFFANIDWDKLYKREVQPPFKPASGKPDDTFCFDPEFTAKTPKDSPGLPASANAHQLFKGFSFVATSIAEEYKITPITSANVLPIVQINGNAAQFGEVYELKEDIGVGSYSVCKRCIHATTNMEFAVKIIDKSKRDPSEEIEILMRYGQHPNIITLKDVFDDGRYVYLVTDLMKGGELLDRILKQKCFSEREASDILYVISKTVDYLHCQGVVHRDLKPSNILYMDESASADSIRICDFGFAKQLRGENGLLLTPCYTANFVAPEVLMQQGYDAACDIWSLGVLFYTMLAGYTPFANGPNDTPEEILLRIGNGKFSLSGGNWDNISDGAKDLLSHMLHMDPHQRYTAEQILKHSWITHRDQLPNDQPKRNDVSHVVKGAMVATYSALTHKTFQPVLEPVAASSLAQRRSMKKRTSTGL

[9] = biological target: Dual specificity mitogen-activated protein kinase kinase 6 (Homo sapiens) (UniProt P52564); experiment: Inhibition of recombinant human full length His-tagged MAP2K6 expressed in baculovirus expression system at 2 uM using Ser/Thr 03 as substrate measured after 1 hr by Z'-LYTE assay relative to control
BT-549 = experiment: Antiproliferative activity against human BT-549 cells assessed as cell growth inhibition incubated for 24 hrs by MTS assay; assay type: functional, cell-based; details: BT-549, 24 h
mTORC2 (Homo sapiens) = mTORC2 (Homo sapiens) (UniProt P42345+Q6R327+Q9BVC4+Q9BPZ7); details: U-87 MG, dose 0.025-2 µmol/L, time 6.0 hrs
[10] = biological target: Insulin receptor (Homo sapiens) (UniProt P06213); experiment: Inhibition of recombinant human GST-tagged INSR (1011-1382 residues) expressed in insect cells at 2 uM using Tyr 01 as substrate measured after 1 hr by Z'-LYTE assay relative to control; details: Insect cell
[11] = biological target: Proto-oncogene tyrosine-protein kinase receptor Ret (Homo sapiens) (UniProt P07949); experiment: Inhibition of recombinant human GST-tagged RET (658-1114 residues) expressed in insect cells at 2 uM using Tyr 02 as substrate measured after 1 hr by Z'-LYTE assay relative to control; details: Insect cell
[12] = biological target: SRSF protein kinase 3 (Homo sapiens) (UniProt Q9UPE1); experiment: Inhibition of recombinant human full length GST-tagged STK23 expressed in baculovirus expression system at 2 uM using Ser/Thr 18 as substrate measured after 1 hr by Z'-LYTE assay relative to control
SRSF protein kinase 3 (Homo sapiens), sequence (Q9UPE1 whole entry): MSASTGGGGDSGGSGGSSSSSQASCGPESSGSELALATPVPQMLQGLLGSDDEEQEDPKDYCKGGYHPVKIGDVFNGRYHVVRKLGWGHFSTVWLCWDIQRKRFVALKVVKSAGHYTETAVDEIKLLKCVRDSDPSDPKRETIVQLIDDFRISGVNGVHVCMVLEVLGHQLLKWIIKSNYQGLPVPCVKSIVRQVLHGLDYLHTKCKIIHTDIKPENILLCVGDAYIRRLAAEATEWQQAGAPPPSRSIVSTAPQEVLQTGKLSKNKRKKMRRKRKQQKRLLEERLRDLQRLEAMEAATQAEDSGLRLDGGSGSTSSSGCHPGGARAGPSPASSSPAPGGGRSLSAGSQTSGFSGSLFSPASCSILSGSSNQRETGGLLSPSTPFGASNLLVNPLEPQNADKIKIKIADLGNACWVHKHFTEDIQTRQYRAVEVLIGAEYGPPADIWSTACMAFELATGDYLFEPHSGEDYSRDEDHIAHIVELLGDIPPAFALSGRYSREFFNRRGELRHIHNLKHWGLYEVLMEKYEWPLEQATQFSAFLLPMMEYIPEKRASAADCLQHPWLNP

[13] = Inhibition of recombinant human full-length His-tagged CDK2/cyclin A expressed in insect cells at 2 uM using Ser/Thr 12 as substrate measured after 1 hr by Z'-LYTE assay relative to control; details: Insect cell, condition cancer
[14] = biological target: Tyrosine-protein kinase JAK1 (Homo sapiens) (UniProt P23458); experiment: Inhibition of recombinant human GST-tagged JAK1 (866-1154 residues) expressed in insect cells at 2 uM using Tyr 06 as substrate measured after 1 hr by Z'-LYTE assay relative to control; details: Insect cell
[15] = biological target: Serine/threonine-protein kinase PAK 3 (Homo sapiens) (UniProt O75914); experiment: Inhibition of recombinant human full length His-tagged PAK3 expressed in insect cells at 2 uM using Ser/Thr 20 as substrate measured after 1 hr by Z'-LYTE assay relative to control; details: Insect cell
Serine/threonine-protein kinase PAK 3 (Homo sapiens), sequence (O75914 whole entry, looked up): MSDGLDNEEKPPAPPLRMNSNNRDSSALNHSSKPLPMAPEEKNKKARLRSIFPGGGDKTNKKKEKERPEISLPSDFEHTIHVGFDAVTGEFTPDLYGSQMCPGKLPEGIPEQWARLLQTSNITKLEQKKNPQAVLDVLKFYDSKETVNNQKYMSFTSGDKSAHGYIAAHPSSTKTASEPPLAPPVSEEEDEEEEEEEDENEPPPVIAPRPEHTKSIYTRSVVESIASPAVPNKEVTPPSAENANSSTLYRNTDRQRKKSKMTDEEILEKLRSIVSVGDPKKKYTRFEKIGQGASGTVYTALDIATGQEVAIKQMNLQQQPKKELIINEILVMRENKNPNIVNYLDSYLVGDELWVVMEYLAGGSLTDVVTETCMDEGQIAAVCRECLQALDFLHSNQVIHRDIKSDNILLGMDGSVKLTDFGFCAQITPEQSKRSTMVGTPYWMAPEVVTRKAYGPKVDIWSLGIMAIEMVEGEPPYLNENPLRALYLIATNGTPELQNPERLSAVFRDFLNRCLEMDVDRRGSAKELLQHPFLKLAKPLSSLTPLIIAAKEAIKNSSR

786-0 = experiment: Antitumor activity against VHL null-human 786-0 cells xenografted in female nude mouse model assessed as suppression in tumor growth at 25 mg/kg, po qd administered as 5 days on/2 days off regimen for 4 cycles relative to control; assay type: functional; details: time 28 day
A498 = experiment: Synergistic antitumor activity against human A498 cells xenografted in female nude mouse model assessed as cause in tumor regression at 50 mg/kg, po qd administered as 5 days on/2 days off regimen for 4 cycles in the presence of BEV; assay type: functional, organism-based; details: time 28.0 day
[16] = biological target: Serine/threonine-protein kinase Nek4 (Homo sapiens) (UniProt P51957); experiment: Inhibition of recombinant human full length GST-tagged NEK4 expressed in insect cells at 2 uM using Ser/Thr 17 as substrate measured after 1 hr by Z'-LYTE assay relative to control; details: Insect cell
Serine/threonine-protein kinase Nek4 (Homo sapiens), sequence (P51957 whole entry, looked up, the tested form may be a part): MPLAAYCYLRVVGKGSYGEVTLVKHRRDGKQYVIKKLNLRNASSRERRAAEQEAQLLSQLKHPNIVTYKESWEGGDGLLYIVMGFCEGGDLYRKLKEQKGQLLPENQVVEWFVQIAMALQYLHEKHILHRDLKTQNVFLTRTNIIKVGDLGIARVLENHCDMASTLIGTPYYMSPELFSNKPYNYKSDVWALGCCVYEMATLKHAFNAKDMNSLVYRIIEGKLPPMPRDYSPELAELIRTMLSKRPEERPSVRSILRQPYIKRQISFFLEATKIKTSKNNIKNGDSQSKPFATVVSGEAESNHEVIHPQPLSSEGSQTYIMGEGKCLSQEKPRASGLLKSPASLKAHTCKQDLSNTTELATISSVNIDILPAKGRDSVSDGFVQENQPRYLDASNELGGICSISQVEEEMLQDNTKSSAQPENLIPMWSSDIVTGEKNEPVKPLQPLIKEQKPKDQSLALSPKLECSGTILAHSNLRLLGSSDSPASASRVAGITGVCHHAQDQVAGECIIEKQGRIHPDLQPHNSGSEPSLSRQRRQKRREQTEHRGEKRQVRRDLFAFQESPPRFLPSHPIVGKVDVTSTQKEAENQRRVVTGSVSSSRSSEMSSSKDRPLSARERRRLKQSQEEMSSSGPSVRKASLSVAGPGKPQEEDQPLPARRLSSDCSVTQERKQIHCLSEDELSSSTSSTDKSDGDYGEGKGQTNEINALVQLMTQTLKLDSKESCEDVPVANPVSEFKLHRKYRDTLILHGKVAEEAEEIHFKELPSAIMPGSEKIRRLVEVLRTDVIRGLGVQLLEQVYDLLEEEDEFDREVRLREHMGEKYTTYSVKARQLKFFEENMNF

[17] = test system: Platelet-derived growth factor receptor alpha (Homo sapiens), P16234 [T674I]; experiment: Inhibition of recombinant human GST-tagged PDGFRA T674I mutant (550-1089 residues) expressed in baculovirus expression system at 2 uM using Tyr 04 as substrate measured after 1 hr by Z'-LYTE assay relative to control
[18] = biological target: Serine/threonine-protein kinase PAK 4 (Homo sapiens) (UniProt O96013); experiment: Inhibition of recombinant human GST-tagged PAK4 (295-591 residues) expressed in insect cells at 2 uM using Ser/Thr 20 as substrate measured after 1 hr by Z'-LYTE assay relative to control; details: Insect cell
Serine/threonine-protein kinase PAK 4 (Homo sapiens), sequence (O96013 whole entry, looked up, the tested form may be a part): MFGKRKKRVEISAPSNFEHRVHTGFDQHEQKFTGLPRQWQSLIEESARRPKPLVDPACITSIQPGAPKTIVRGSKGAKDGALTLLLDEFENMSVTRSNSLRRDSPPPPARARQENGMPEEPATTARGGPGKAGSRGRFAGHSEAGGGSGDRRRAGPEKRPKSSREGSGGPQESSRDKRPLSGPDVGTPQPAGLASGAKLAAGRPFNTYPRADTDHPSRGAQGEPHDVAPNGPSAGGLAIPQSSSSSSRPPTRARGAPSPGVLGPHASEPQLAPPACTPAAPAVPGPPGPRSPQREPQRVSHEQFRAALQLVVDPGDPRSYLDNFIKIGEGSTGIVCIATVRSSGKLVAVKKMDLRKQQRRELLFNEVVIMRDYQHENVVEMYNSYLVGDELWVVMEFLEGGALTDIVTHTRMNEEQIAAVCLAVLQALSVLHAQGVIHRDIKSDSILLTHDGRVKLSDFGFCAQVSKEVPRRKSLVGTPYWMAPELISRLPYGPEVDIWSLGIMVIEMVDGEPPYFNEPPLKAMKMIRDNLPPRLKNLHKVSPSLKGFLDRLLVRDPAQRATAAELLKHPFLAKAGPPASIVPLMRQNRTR

[19] = biological target: Serine/threonine-protein kinase MRCK beta (Homo sapiens) (UniProt Q9Y5S2); experiment: Inhibition of recombinant human His-tagged CDC42BPB (1-473 residues) expressed in baculovirus expression system at 2 uM using Ser/Thr 13 as substrate measured after 1 hr by Z'-LYTE assay relative to control
[20] = test system: Epidermal growth factor receptor (Homo sapiens), P00533 [L858R]; experiment: Inhibition of recombinant human GST-tagged EGFR L858R mutant (668-1210 residues) expressed in insect cells at 2 uM using Tyr 04 as substrate measured after 1 hr by Z'-LYTE assay relative to control; details: Insect cell

Structure (SMILES): CNC(=O)Nc1ccc(-c2nc(N3CC4CCC(C3)O4)c3cnn(C4CCC5(CC4)OCCO5)c3n2)cc1
- inhibition at 0.3 µM (MDA-MB-361 [1]): ~50%
- inhibition [2]: 5%
- inhibition [3]: -6%
- inhibition [4]: 2%
- inhibition [5]: -1%
- Activity (MDA-MB-361 [6]): inactive
- inhibition [7]: 5%
- inhibition [8]: 12%
- inhibition [9]: 8%
- pIC50 (BT-549): 7.43
- inhibition (mTORC2 (Homo sapiens)): inactive
- inhibition [10]: 4%
- inhibition [11]: 4%
- inhibition [12]: 6%
- inhibition at 2 µM [13]: 0%
- inhibition [14]: 5%
- inhibition [15]: 1%
- Activity (786-0): 100%
- Activity (A498): Active
- inhibition [16]: 7%
- inhibition [17]: 12%
- inhibition [18]: 13%
- inhibition [19]: 9%
- inhibition [20]: 3%
